Source: patent publication US5073539A, “Transdermal administration of zwitterionic drugs” (Ciba-Geigy Corporation, priority 1990, dated 1991)
Values after ≈ are worked out from the molar mass of the structure shown. Structures can show the parent of a compound that is named as a salt. Where two headings read alike, the source gives them in different places.

Tests used:
[1] = Permeation rate through human epidermis; assay type: in vitro ADME
Description: (§1) In the examples, the solubilities of free zwitterion and enhanced solubilities of various salts thereof are reported in various degrees in the following solvents: water, ethanol, octanol, chloroform and human stratum corneum. Permeation rates are also shown for these zwitterionic compounds and enhanced fluxes of the salts thereof through materials including polyurethane. While such materials are impractical for transdermal devices for free zwitterions, these materials are practical for the transdermal delivery of salts of zwitterions. The solubility in water is given as a model of polar solvents, while the octanol and chloroform are given as models for skin lipids. The critical factor for inclusion of a salt within the invention is that relative to its non salt zwitterion parent compound, the salt form of the invention has a greater solubility in both polar and lipid skin models.
(§2) Average of values measured in triplicate.

[2] = Permeation rate through polyurethane; assay type: physicochemical
Description: as §1, §2

[3] = Solubility in ethanol at 25 deg. C.; assay type: physicochemical; conditions: average of triplicate
[4] = Solubility in water at 25 deg. C.; assay type: physicochemical; conditions: average of triplicate
Description: (§3) The solubility in water is given as a model of polar solvents, while the octanol and chloroform are given as models for skin lipids.

[5] = Solubility in chloroform at 25 deg. C. (model of skin lipids); assay type: physicochemical
Description: as §1, §2

[6] = Solubility in octanol at 25 deg. C. (model of skin lipids); assay type: physicochemical; conditions: average of triplicate
Description: as §3

[7] = Solubility in human stratum corneum; assay type: physicochemical; conditions: average of triplicate
Description: as §1, §2

[8] = at 25 deg. C., average of triplicate

Row | Compound | Permeation rate through polyurethane ([2]; average of triplicate) | R.E. (relative enhancement) of permeation rate through polyurethane ([2]; relative to free zwitterion) | Solubility in ethanol [3] | Solubility in chloroform [5, 8] | Solubility in octanol [6] | Solubility in water [4] | Permeation rate through polyurethane [2] | R.E. (relative enhancement) of permeation rate through polyurethane [2] | further results
1 | N[C@@H](Cc1ccccc1)C(=O)O [Phenylalanine (Phe), Phenylalanine, reference compound] | 1.92 ug/cm 2/hr | 1.00 | – | – | – | – | – | – | Permeation rate through human epidermis ([1]; average of triplicate): 1.02 ug/cm 2/hr; R.E. (relative enhancement) of permeation rate through human epidermis ([1]; relative to free zwitterion): 1.00; solubility ([3]; ethanol, organic solvent or mixture): 0.234 mg/mL (≈ 1.42 mM); solubility ([4]; water): 25.3 mg/mL (≈ 153 mM); solubility ([5]; chloroform, organic solvent or mixture, at 25 deg. C., average of triplicate): 0.00021 mg/mL (≈ 0.00127 mM); solubility ([6]; octanol, organic solvent or mixture): 0.0123 mg/mL (≈ 0.0745 mM)
2 | NCC(CC(=O)O)c1ccc(Cl)cc1 (stereo not drawn) [Bac. pentane sulfonate] | 220.2 ug/cm 2/hr | 41.30 | 61.6503 mg/mL | 37.4 µg/mL | 0.5764 mg/mL | – | – | – | –
3 | NCC(CC(=O)O)c1ccc(Cl)cc1 (stereo not drawn) [Bac. hydrobromide] | 738.9 ug/cm 2/hr | 138.89 | 129.5697 mg/mL | 13.7 µg/mL | 0.47705 mg/mL | 351.9468 mg/mL | – | – | Permeation rate through human epidermis ([1]; average of triplicate): 25.49 ug/cm 2/hr; R.E. (relative enhancement) of permeation rate through human epidermis ([1]; relative to free zwitterion): 216.02; Solubility in human stratum corneum [7]: 0.2922 mg/mL
4 | NCC(CC(=O)O)c1ccc(Cl)cc1 (stereo not drawn) [Bac. hydrofluoride] | 3.45 ug/cm 2/hr | 0.65 | 1.79088 mg/mL (≈ 8.38 mM) | 0.104 µg/mL (≈ 0.000487 mM) | – | 1.3962 mg/mL (≈ 6.53 mM) | – | – | Solubility in human stratum corneum [7]: 0.02215 mg/mL (≈ 0.104 mM)
5 | NCC(CC(=O)O)c1ccc(Cl)cc1 (stereo not drawn) [Bac. ethane sulfonate] | 211.9 ug/cm 2/hr | 39.83 | 237.181 mg/mL | 11.17 µg/mL | – | 38.8898 mg/mL | – | – | –
6 | NCC(CC(=O)O)c1ccc(Cl)cc1 (stereo not drawn) [Bac. potassium salt] | 587.8 ug/cm 2/hr | 110.49 | – | – | – | – | – | – | –
7 | NCC(CC(=O)O)c1ccc(Cl)cc1 (stereo not drawn) [Bac. sodium salt] | 605.3 ug/cm 2/hr | 113.78 | 529.056 mg/mL | 3.47 µg/mL | – | 21.3797 mg/mL | – | – | –
8 | O=C(O)CN1C(=O)[C@@H](N[C@@H](CCc2ccccc2)C(=O)O)CCc2ccccc21 [Benazeprilat (CGS14831), Benazeprilat, reference compound] | – | – | 0.12089 mg/mL (≈ 0.305 mM) | – | – | – | 0.311 ug/cm 2/hr | 1.00 | Permeation rate through human epidermis [1]: 0.1409 ug/cm 2/hr; R.E. (relative enhancement) of permeation rate through human epidermis [1]: 1.00
9 | NCCCC[C@H](N[C@H]1CCc2ccccc2N(CC(=O)O)C1=O)C(=O)O [CGS 16617. dihydrochloride] | – | – | 1.89075 mg/mL | – | 0.0878 mg/mL | 1127.8 mg/mL | 13.34 ug/cm 2/hr | 24.80 | –
10 | NCCCC[C@H](N[C@H]1CCc2ccccc2N(CC(=O)O)C1=O)C(=O)O [CGS 16617. dihydrobromide] | – | – | 45.0269 mg/mL | – | 0.5067 mg/mL | 1423 mg/mL | 65.31 ug/cm 2/hr | 121.39 | –
11 | NC(Cc1ccccc1)C(=O)O (stereo not drawn) [Phe. hydrochloride] | 1516.23 ug/cm 2/hr | 789.70 | 107.1459 mg/mL | 58.26 µg/mL | 40.2318 mg/mL | 959.6908 mg/mL | – | – | Permeation rate through human epidermis ([1]; average of triplicate): 77.53 ug/cm 2/hr; R.E. (relative enhancement) of permeation rate through human epidermis ([1]; relative to free zwitterion): 76.01
12 | NCC(CC(=O)O)c1ccc(Cl)cc1 (stereo not drawn) [Bac. methane sulfonate, baclofen methane sulfonate] | 287.9 ug/cm 2/hr | 54.12 | 170.84 mg/mL | 0.087 µg/mL | – | 8.8269 mg/mL | – | – | solubility in chloroform versus free zwitterion ([5]; in words, exception to salt being more soluble): one exception
13 | NCC(CC(=O)O)c1ccc(Cl)cc1 (stereo not drawn) [Bac. fumarate] | 11.4 ug/cm 2/hr | 2.14 | – | 0.627 µg/mL | – | 1.1875 mg/mL | – | – | –
14 | NCCCC[C@H](N[C@H]1CCc2ccccc2N(CC(=O)O)C1=O)C(=O)O [CGS 16617, reference compound] | – | – | 0.1907 mg/mL (≈ 0.525 mM) | – | 0.02336 mg/mL (≈ 0.0643 mM) | 491.5 mg/mL (≈ 1350 mM) | 0.538 ug/cm 2/hr | 1.00 | –
15 | NCC(CC(=O)O)c1ccc(Cl)cc1 (stereo not drawn) [Bac. lithium salt] | 128.3 ug/cm 2/hr | 24.12 | 57.8373 mg/mL | 6.93 µg/mL | – | 21.7191 mg/mL | – | – | –
16 | NCCCC[C@H](N[C@H]1CCc2ccccc2N(CC(=O)O)C1=O)C(=O)O [CGS 16617. monomaleate] | – | – | 0.24882 mg/mL | – | 0.01396 mg/mL | 623.9 mg/mL | 3.47 ug/cm 2/hr | 6.45 | –
17 | NCC(CC(=O)O)c1ccc(Cl)cc1 (stereo not drawn) [Bac. propane sulfonate] | 233.9 ug/cm 2/hr | 43.97 | 107.317 mg/mL | 8.74 µg/mL | – | 24.4257 mg/mL | – | – | –
18 | NCC(CC(=O)O)c1ccc(Cl)cc1 (stereo not drawn) [Bac. hydrochloride] | 273.7 ug/cm 2/hr | 51.45 | 37.4989 mg/mL | 5.34 µg/mL | 0.3243 mg/mL | 244.6225 mg/mL | – | – | Solubility in human stratum corneum [7]: 0.21469 mg/mL
19 | O=C(O)CN1C(=O)[C@@H](N[C@@H](CCc2ccccc2)C(=O)O)CCc2ccccc21 [CGS 14831. dilithium salt] | – | – | 27.97561 mg/mL | – | – | – | 47.76 ug/cm 2/hr | 153.57 | Permeation rate through human epidermis [1]: 8.95 ug/cm 2/hr; R.E. (relative enhancement) of permeation rate through human epidermis [1]: 63.52
20 | O=C(O)CN1C(=O)[C@@H](N[C@@H](CCc2ccccc2)C(=O)O)CCc2ccccc21 [CGS 14831. dipotassium salt] | – | – | 34.19351 mg/mL | – | – | – | 75.01 ug/cm 2/hr | 241.19 | Permeation rate through human epidermis [1]: 20.56 ug/cm 2/hr; R.E. (relative enhancement) of permeation rate through human epidermis [1]: 145.92
21 | NCC(CC(=O)O)c1ccc(Cl)cc1 (stereo not drawn) [Bac. maleate] | 19.13 ug/cm 2/hr | 3.59 | – | 0.026 µg/mL | – | 1.2923 mg/mL | – | – | –
